Reference: US20080058426A1, “COMPOSITION AND METHOD FOR TREATING PSORIASIS” (priority 2006, published 2008)

Assay: Safety of THC in the psoriasis clinical study
Conditions: human, in vivo
From the text: • Study Duration: 45 days • Population: 10 psoriasis affected subjects • Intervention: THC formulated as a cream with pharmaceutically acceptable carriers applied topically three times a day for 45 days.
The primary objective in this study was to determine the efficacy and safety of the THC cream. The parameters to detect the efficacy and safety of the medication included relief from the characteristic symptoms of psoriasis like itching, erythema, scaling, infiltration, and the extent of clearance of psoriasis lesions.

With Tetrahydrocurcuminoids [THC] as the substance, how does the Toxic side effects read?
The Toxic side effects was “devoid of toxic side effects”.
